Test results from patent US20060069132A1, “Azolecarboxamide herbicides” (priority 2004, published 2006).

Columns and labels:
[1] = system: rice; assay: Test B pre-/postemergence herbicide test; assay type: in vivo, Oryza sativa; conditions: preemergence; for Plant response rating, Rice: 500 g ai/ha; for Rice plant response rating (0 to 100 scale): 125 g ai/ha
Summary of the method: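 Species tested were Echinochloa crus-galli, Ipomoea coccinea, Xanthium strumarium and Oryza sativa, treated both before emergence and at the 1- to 4-leaf stage; rice and barnyardgrass were also tested under flooding at 2 leaves. Greenhouse incubation lasted 13–15 days before visual 0–100 scoring.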

[2] = system: rice; assay: Test C flooded paddy test; assay type: in vivo, Oryza sativa; conditions: for Plant response rating, Rice: 500 g ai/ha, visual rating after 12 to 14 days
Summary of the method: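 Plants were grown to the 1- to 4-leaf stage (2–18 cm) and then treated postemergence, or grown to the 2-leaf stage for the flooded paddy test. They were held in a greenhouse for 12 to 14 days and then scored by eye against controls, where 0 is no effect and 100 is complete control.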

[3] = system: morningglory; assay: Test A pre-/postemergence herbicide test; assay type: in vivo, Ipomoea spp.
Summary of the method: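 Visual injury scores on a 0–100 scale (100 = complete control) taken about ten days post-treatment in greenhouse against untreated controls; dash means no result. Treatments: preemergence soil spray and postemergence spray to runoff on one- to two-leaf plants 2 to 10 cm tall, surfactant-containing formulation.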

[4] = system: smallflower umbrella sedge; assay: Test C flooded paddy test; assay type: in vivo, Cyperus difformis; conditions: for Plant response rating, Sedge, Umbrella: 500 g ai/ha, visual rating after 12 to 14 days
[5] = visual rating 0-100, 0 no effect, 100 complete control
[6] = 62 g ai/ha, scale 0 to 100 (0 no effect, 100 complete control)
[7] = 125 g ai/ha, scale 0 to 100 (0 no effect, 100 complete control)
[8] = 250 g ai/ha, scale of 0 to 100, 0 is no effect, 100 is complete control
[9] = scale 0 to 100 (0 no effect, 100 complete control)
[10] = Postemergence, 500 g ai/ha, 0 to 100 scale, 0 no effect, 100 complete control
[11] = Postemergence, 2000 g ai/ha, 0 to 100 scale, 0 no effect, 100 complete control
[12] = Preemergence, 2000 g ai/ha, visual rating, 0 to 100 scale (0 no effect, 100 complete control)
[13] = 0 = no effect, 100 = complete control
[14] = preemergence, 500 g ai/ha, visual injury, 0 to 100 scale (0 no effect, 100 complete control)
[15] = visual rating, 0 = no effect, 100 = complete control

SMILES	Plant response rating, Rice [1, 5]	Rice plant response rating [2, 6]	Rice plant response rating [2, 7]	Rice plant response rating [2, 8]	Plant response rating, Rice [2, 9]	Morningglory plant response rating [3, 10]	Plant response rating, Morningglory [3, 11]	Morningglory plant response rating ([3]; Preemergence, 500 g ai/ha, visual rating, 0 to 100 scale (0 no effect, 100 complete control))	Morningglory plant response rating [3, 12]	Sedge, Umbrella plant response rating [4, 6]	Sedge, Umbrella plant response rating [4, 7]	Sedge, Umbrella plant response rating [4, 8]	Plant response rating, Sedge, Umbrella [4, 9]	Rice plant response rating (0 to 100 scale) [1, 13]	Morningglory plant response rating [3, 14]	Plant response rating, Rice [1, 15]	Rice plant response rating ([2]; 62 g ai/ha, scale 0 to 100)	Sedge, Umbrella plant response rating ([4]; 62 g ai/ha, scale 0 to 100)
CCn1nc(C(C)(C)C)cc1C(=O)Nc1cccc(OCCCF)c1 [Compound 138]	40	5	5	5	40	15	40	15	45	0	40	75	95					
CCc1nc(C(C)(C)C)sc1C(=O)Nc1cccc(C(=O)NCCF)c1 [Compound 209]	70	0	45	45	65	0	15		40	55	55	65	80	30	20			
CCc1nc(C(C)(C)C)sc1C(=O)Nc1cccc(C(=O)NC(C)(C)C)n1 [Compound 216]		0	0	0	30	20	20		15	20	30	30	50	0	0	70		
CCNC(=O)c1ccc(F)c(NC(=O)c2cc(C(C)(C)C)nn2CC)n1 [Compound 278]			0	15	30	10	5		25		25	65	75	30	10	80	0	0
CCn1nc(C(C)(C)C)cc1C(=O)Nc1nc(C(=O)N2CC=CC2)ccc1F [Compound 281]			0	15	50	10	15		25		20	40	90	20	5	60	0	15
C#CCNC(=O)c1cc(NC(=O)c2cc(C(C)(C)C)nn2CC)ccn1 [Compound 283]			0	0	0	0	0		10		0	0	0	0	0	0	0	0
